Measured values as given in patent publication US20230233541A1, “SUBSTITUTED BENZAMIDES AS MODULATORS OF TREX1” (Constellation Pharmaceuticals, Inc., priority 2020, published 2023).

Experiments:
full length human TREX1 = target: T1, full length human TREX1 (Homo sapiens, UniProt Q9NSU2); assay: TREX1 Biochemical Assay (fluorescence assay, degradation of dsDNA substrate); conditions: 150 pM TREX1, 60 nM dsDNA substrate, 25 minutes at room temperature; read-out: hTREX1 EC50
T1 construct: N-terminally His-Tev tagged full length human TREX1; His-Tev (His tag with TEV protease site) (N); made in house; host or cells: E. coli
T1 sequence (Q9NSU2 1-314): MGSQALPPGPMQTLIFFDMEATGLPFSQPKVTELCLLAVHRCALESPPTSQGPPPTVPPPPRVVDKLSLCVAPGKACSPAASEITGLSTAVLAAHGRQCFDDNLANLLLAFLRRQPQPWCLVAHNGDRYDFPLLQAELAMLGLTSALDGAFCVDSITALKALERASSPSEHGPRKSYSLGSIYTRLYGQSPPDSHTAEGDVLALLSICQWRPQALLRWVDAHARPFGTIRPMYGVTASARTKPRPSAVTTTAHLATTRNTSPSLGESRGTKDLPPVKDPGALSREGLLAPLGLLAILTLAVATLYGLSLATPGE
Summary of the method: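 E. coli-expressed His-Tev-tagged full-length TREX1 (150 pM) with 60 nM quenched-fluorophore dsDNA in Tris pH 7.4, 150 mM NaCl, 100 mM MgCl2, 1% DMSO, 25 min room temperature, 10-point dose-response. EDTA stop; fluorescence 615 nm (ex 570 nm); IC50 from four-parameter fit against pre-quenched and no-inhibitor controls.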

[1] = target: T2, human TREX2 (residues M44-A279) (Homo sapiens, UniProt Q9BQ50); assay: TREX2 Biochemical Assay (fluorescence assay, degradation of dsDNA substrate); conditions: 2.5 nM TREX2, 60 nM dsDNA substrate, 25 minutes at room temperature; read-out: hTREX2 EC50
T2 construct: human TREX2 (residues M44-A279, expressed in E. coli); His-Tev (His tag with TEV protease site) (N); made in house; host or cells: E. coli
T2 sequence (Q9BQ50 44-279 isoform Q9BQ50-1): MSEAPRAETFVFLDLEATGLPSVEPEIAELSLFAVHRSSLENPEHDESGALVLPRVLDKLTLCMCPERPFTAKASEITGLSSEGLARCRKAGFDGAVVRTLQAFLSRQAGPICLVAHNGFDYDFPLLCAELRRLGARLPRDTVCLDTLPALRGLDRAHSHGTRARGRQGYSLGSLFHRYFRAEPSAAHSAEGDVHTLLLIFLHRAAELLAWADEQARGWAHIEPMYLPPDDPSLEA
Summary of the method: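 His-Tev-tagged human TREX2 (M44-A279, E. coli-expressed) at 2.5 nM final, with 60 nM TEX615/quencher-labelled dsDNA in pH 7.4 Tris buffer with MgCl2 and 1.0% DMSO, 10-point dose-response, 25 min at room temperature, then EDTA quench. Fluorescence read at 615 nm (ex 570 nm). IC50 from four-parameter fit against pre-quenched and no-inhibitor controls.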

| SMILES | EC50 (full length human TREX1) [µM] | EC50 [1] [µM] |
| --- | --- | --- |
| O=C(O)c1ccc(CN(Cc2ccccc2C(F)(F)F)C(=O)c2cc(F)cc(F)c2)cn1 [Compound 172] | < 0.1 | 1 to 10 |
| CC(C)(C)c1ccc(C(=O)N(Cc2cccnc2)Cc2cc(Cl)cc(Cl)c2)cc1 [Compound 61] | > 10 | > 100 |
| O=C(c1ccc(F)c(Cl)c1)N(Cc1cccnc1)Cc1ccc(Cl)cc1Cl [Compound 19] | 1 to 10 | > 100 |
| O=C(c1cc(F)cc(F)c1)N(Cc1ccc(-c2cc(C(F)(F)F)n[nH]2)nc1)Cc1ccccc1Cl [Compound 223] | > 10 | > 100 |
| O=C(/C=C/c1ccco1)N(Cc1cccnc1)Cc1ccc(Cl)cc1Cl [Compound 79] | > 10 | > 100 |
| COc1cc(Br)cc(C(=O)N(Cc2cccnc2)Cc2ccc(Cl)cc2Cl)c1 [Compound 87] | > 10 | > 100 |
| CC[C@@H](c1cccc(OC)c1C(F)(F)F)N(Cc1ccc(C(=O)O)nc1)C(=O)c1cc(F)cc(F)c1 [Compound 197] | < 0.1 | 1 to 10 |
| O=C(c1ccc(Cl)cc1O)N(Cc1cccnc1)Cc1cc(Cl)cc(Cl)c1 [Compound 45] | > 10 | > 100 |
| Cc1nonc1C(=O)N(Cc1cccnc1)Cc1ccc(Cl)cc1Cl [Compound 116] | > 10 | > 100 |
| O=C(c1cc(F)cc(F)c1)N(Cc1cccnc1)[C@H](CCO)c1ccc(Cl)cc1Cl [Compound 260] | < 0.1 | 1 to 10 |
| Cc1noc(C)c1C(=O)N(Cc1cccnc1)Cc1ccc(Cl)cc1Cl [Compound 115] | > 10 | > 100 |
| O=C(c1ccccc1)N(Cc1cccnc1)Cc1ccc(Cl)cc1Cl [Compound 2] | 1 to 10 | > 100 |
| CC(C)[C@H](c1ccc(Cl)cc1Cl)N(Cc1cccnc1)C(=O)c1cccc(F)c1 (single isomer, unassigned) [Compound 159] | 1 to 10 | 10 to 100 |
| COC(=O)C[C@H](c1ccc(Cl)cc1Cl)N(Cc1cccnc1)C(=O)c1cc(F)cc(F)c1 [Compound 216] | 1 to 10 | 10 to 100 |

Continued, values first:

| EC50 (full length human TREX1) [µM] | EC50 [1] [µM] | SMILES |
| --- | --- | --- |
| 0.1 to 1 | 10 to 100 | O=C(c1cc(F)cc(F)c1)N(Cc1cnc2c(=O)[nH]cnc2c1)Cc1ccccc1Cl [Compound 183] |
| < 0.1 | 10 to 100 | O=C(O)c1ncc(CN(Cc2cccc(Cl)c2Cl)C(=O)c2cc(F)cc(F)c2)cc1O [Compound 257] |
| < 0.1 | 1 to 10 | O=C(O)c1ccc(CN(Cc2ccc3ncccc3c2Cl)C(=O)c2cc(F)cc(F)c2)cn1 [Compound 191] |
| 0.1 to 1 | 10 to 100 | C[C@H](c1cccc(Cl)c1Cl)N(Cc1ccc(C(=O)O)nc1)C(=O)c1cc(F)cc(F)c1 [Compound 173] |
| < 0.1 | 1 to 10 | COc1nccc(CN(Cc2ccc(C(=O)O)nc2)C(=O)c2cc(F)cc(F)c2)c1Cl [Compound 188] |
| < 0.1 | 1 to 10 | O=C(O)c1ccc(CN(Cc2cncc(Cl)c2Cl)C(=O)c2cc(F)cc(F)c2)cn1 [Compound 202] |
| < 0.1 | < 1 | C[C@@H](c1cccc(Cl)c1Cl)N(Cc1ccc(C(=O)O)nc1)C(=O)c1cc(F)cc(F)c1 [Compound 174] |
